Source: PMC11013139, “Identification of Corn Peptides with Alcohol Dehydrogenase Activating Activity Absorbed by Caco-2 Cell Monolayers” (Molecules, 2024)
Where no end group is shown, it is not given here.

Experiments:
[1] = target: T1, ADH (Saccharomyces cerevisiae, UniProt P00330); experiment: ADH activation activity in vitro (improved assay kit method); type: biochemical; conditions: synthetic peptides; ADH 0.2 U/mL, NAD+ and ethanol, 37 °C, absorbance 340 nm every 10 s for 10 min; mean ± SD of three parallel experiments
T1 sequence (P00330 1-348): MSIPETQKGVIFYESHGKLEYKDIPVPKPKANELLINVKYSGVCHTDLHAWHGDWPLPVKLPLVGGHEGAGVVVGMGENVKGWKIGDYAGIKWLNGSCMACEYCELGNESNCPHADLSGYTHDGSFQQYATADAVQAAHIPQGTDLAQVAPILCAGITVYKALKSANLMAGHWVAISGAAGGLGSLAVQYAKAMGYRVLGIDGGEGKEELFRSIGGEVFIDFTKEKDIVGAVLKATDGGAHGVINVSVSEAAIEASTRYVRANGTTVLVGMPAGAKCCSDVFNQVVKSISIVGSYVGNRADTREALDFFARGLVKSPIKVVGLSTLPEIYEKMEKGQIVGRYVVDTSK
Method: The ADH activation activity in vitro was detected using an improved assay kit method. The specific steps are as follows: 50 μL of the sample solution was mixed with 150 μL of the assay reagent (including buffer, NAD^+, and ethanol); after equilibrating at 37 °C for 5 min, 50 μL of ADH (0.2 U/mL) was added to initiate the reaction. The absorbance at 340 nm was measured using a Varioskan Flash (Thermo Fisher Scientific, Waltham, MA, USA) full-wavelength scanning multimode reader, with readings taken every 10 s for 10 min. Distilled water was used as a negative control in place of the sample. The reaction kinetics curve was fitted, and the first derivative of the curve at 0 min was calculated as the initial reaction rate. The initial reaction rate of the sample was recorded as Vs, while that of the negative control was recorded as V0. The ADH activation rate of the sample can be calculated using the following equation:(1) ADH activation activity %=VS−V0/V0×100

[2] = tested on: ADH enzyme; conditions: cited from earlier work
Excerpt: The results of molecular docking were visualized by selecting three peptides with the lowest binding energy, as depicted in Figure 5. Three peptides successfully docked onto the hydrophobic cavity near the ADH active site, primarily binding to ADH through hydrogen bonds and hydrophobic interactions. Twelve hydrogen bonds were formed between SSNCQPF and ADH residues (His 44, Gly 181, Leu 182, Gly 183, Val 245, Ser 246, Val 247, Met 270, Glu 333, Gly 339, Arg 340). Ten hydrogen bonds were formed between QPQQP ...

| Substance | EC50 [1] | binding energy between peptide KPC and ADH enzyme [2] |
| --- | --- | --- |
| SSNCQPF [SSNCQPF] | 1.35 ± 0.22 mM | – |
| QPQQPW [QPQQPW] | 2.73 ± 0.13 mM | – |
| TGCPVLQ [TGCPVLQ] | 2.26 ± 0.16 mM | – |
| Lys-Pro-Cys [KPC, Chicken-derived tripeptide KPC (Lys-Pro-Cys)] | – | -6.6 kcal/mol |
